Literature values, collected in patent US20250375365A1, “MOUTH RESCUE RINSE AND METHODS OF REGULATING BLOOD PRESSURE” (University of Florida Research Foundation, Inc., priority 2024, published 2025).

What was measured:
[1] = CHX rinses, healthy subjects; some studies reported

## N=C(NCCCCCCNC(=N)NC(=N)Nc1ccc(Cl)cc1)NC(=N)Nc1ccc(Cl)cc1.O=C(O)[C@H](O)[C@@H](O)[C@H](O)[C@H](O)CO.O=C(O)[C@H](O)[C@@H](O)[C@H](O)[C@H](O)CO [CHX, chlorhexidine gluconate]
[1]
  blood pressure values versus controls: higher blood pressure values
Oral microbiome; one-week CHX course
  reduction of oral microbiome associated with oral nitrate production: significantly impact the reduction of oral microbiome
Oral microbiome; oral antiseptic mouthwash
  bacterial species associated with oral inflammation: effectively reduced bacterial species
